Test results as given in PMC3404106, “Pharmacology of DB844, an Orally Active aza Analogue of Pafuramidine, in a Monkey Model of Second Stage Human African Trypanosomiasis” (PLoS Neglected Tropical Diseases, 2012).
“Also recorded” adds a separate entry of the source.

Experiment: Safety monitoring (clinical, haematology, clinical chemistry) in infected DB844-treated monkeys
Format: in vivo, vervet monkey
Details: for RBC / Haematocrit / Hemoglobin / Mean corpuscular haemoglobin / Mean corpuscular volume / Platelet counts / WBC counts: infected monkeys
Description: Haematology samples (1 ml) were analysed using an AC^3diffT Coulter Counter (Miami, Florida, USA). Clinical chemistries were determined using a Humalyzer analyser system. Finally, plasma and CSF were analyzed for drug and metabolite concentrations using an HPLC-tandem Mass Spectrometry (HPLC-MS/MS) procedure as described below.

[1] = infected monkeys after oral DB844 treatment, days post last dose
[2] = DB844 6 mg/kg×14 days, 41 DPI (0 days post last dose)
[3] = DB844 6 mg/kg×14 days, 48 DPI (7 days post last dose)
[4] = DB844 6 mg/kg×14 days, 69 DPI (28 days post last dose)
[5] = DB844 6 mg/kg×14 days, 104 DPI (63 days post last dose)

## CONC(=N)c1ccc(-c2ccc(-c3ccc(C(=N)NOC)cn3)o2)cc1 [DB844, N-methoxy-6-{5-[4-(N-methoxyamidino)phenyl]-furan-2-yl}-nicotinamidine]
Group II, 6 mg/kg, after 7 daily drug doses (34 DPI), baseline 4.5±0.9 IU
  mean plasma ALT at its peak: 13.6±3.8 IU
Group II, 6 mg/kg×14 days
  alkaline phosphatase change during and after drug administration: no significant changes
  plasma creatinine change from baseline: not significant
  total bilirubin and direct bilirubin changes: none of the changes were statistically significant
Group II, 6 mg/kg×14 days, 24 hours post dosing
  increase of mean plasma AST above baseline: 3.3 times
Group II, 6 mg/kg×14 days, 24 hours post dosing, baseline 37.0±4.8 IU
  mean (± SE) plasma AST: 121±21.6 IU
Group II, 6 mg/kg×14 days, from 48 h post dosing (43 DPI)
  blood urea nitrogen (BUN) as indicator of renal function: mild and reversible decrease in kidney function
Group II, efficacy study
  increases in plasma transaminases (AST and ALT): 2–3 fold
  time to reversal of transaminase elevations after the last drug dose: 4 to 7 days
[1]
  time to re-establishment of baseline RBC associated parameters: 28 to 63 days
  time to re-establishment of baseline platelet parameters: within seven
Infected monkeys treated with oral DB844 (5 and 6 mg/kg)
  drug related haematology changes: no drug related haematology changes; also recorded: No DB844-related haematological aberrations
DB844 6 mg/kg×14 days (28–41 DPI), 41 DPI (0 days post last dose)
  RBC: 4.8±0.3, p<0.0001 ×10^6/µl
[2]
  Haematocrit: 31.6±1.6, p<0.0001%
  Hemoglobin: 11.2±0.7, p<0.0001 g/dl
  Mean corpuscular haemoglobin: 23.0±0.3 p<0.008 g/dl
  Mean corpuscular volume: 65.3±0.9, p = 0.0001 fl
  Platelet counts: 406.5±22.5 p = 0.05 ×10^3/µl
  WBC counts: 7.1±1.0, p = 0.12 ×10^3/µl
[3]
  Haematocrit: 31.8±1.6, p<0.0001%
  Hemoglobin: 11.5±0.6, p<0.0001 g/dl
  Mean corpuscular haemoglobin: 23.3±0.4 p = 0.07 g/dl
  Mean corpuscular volume: 64.8±0.9, p = 0.0001 fl
  Platelet counts: 390.7±32.4, p = 0.11 ×10^3/µl
  RBC: 4.9±0.2, p<0.004 ×10^6/µl
  WBC counts: 5.6±1.2, p = 0.9 ×10^3/µl
[4]
  Haematocrit: 43.8±1.6, p = 0.91%
  Hemoglobin: 12.8±0.5, p = 0.15 g/dl
  Mean corpuscular haemoglobin: 23.4±0.6, p = 0.13 g/dl
  Mean corpuscular volume: 79.8±1.4, p = 0.11 fl
  Platelet counts: 332.2±11.9, p = 0.78 ×10^3/µl
  RBC: 5.5±0.2, p = 0.55 ×10^6/µl
  WBC counts: 5.9±0.8, p = 0.8 ×10^3/µl
[5]
  Haematocrit: 46.7±2.7, p = 0.91%
  Hemoglobin: 14.1±0.8, p = 0.11 g/dl
  Mean corpuscular haemoglobin: 23.3±0.5 p = 0.21 g/dl
  Mean corpuscular volume: 77.0±1.5, p = 0.21 fl
  Platelet counts: 294.3±17.4 p = 0.55 ×10^3/µl
  RBC: 6.1±0.3 p = 0.02 ×10^6/µl
  WBC counts: 5.1±0.1, p = 0.4 ×10^3/µl
